Counter-ions that a name gives are not always drawn. Like-named read-outs stand apart in the source and are kept apart here. Each block holds one compound with its values, some of them ahead of it.
Key:
[1] = Stability of solid form on storage, checked by XRPD; type: physicochemical; conditions: for Final Solid Form: 11 months, XRPD
Method: Solid samples of Form E were stored under conditions of 25° C./60% relative humidity (RH) and 40° C./75% RH for 11 months and XRPD were tested. The XRPD patterns before and after storage were substantially as depicted in FIG. 7.
Form E remains stable for at least 11 months under conditions of 25° C./60% RH and 40° C./75% RH. […] The XRPD patterns overlay are substantially as depicted in FIG. 7, in which the top, middle and bottom patterns correspond to the initial sample, sample stored at 25° C./60% RH for 11 months and sample stored at 40° C./75% RH for 11 months, respectively.

[2] = Hygroscopicity by dynamic vapor sorption (DVS); type: physicochemical; conditions: for Hygroscopicity class: Chinese Pharmacopoeia 2015 guideline 9103, 25° C.; for Weight gain under 80% Relative Humidity: about 10 mg sample
Method: Dynamic vapor sorption (DVS) was applied to assess hygroscopicity of Form E and Form M in patent CN103781770B with about 10 mg of samples. The DVS plots of Form E and Form M were substantially as depicted in FIG. 8 and FIG. 9, respectively.
About hygroscopicity characterization description and definition of hygroscopicity (Chinese Pharmacopoeia 2015 edition general notices 9103 Drug hygroscopicity test guidelines, test at 25° C.+/−1° C., 80% Relative Humidity). • deliquescent: Sufficient water is absorbed to form a liquid; • very hygroscopic: Increase in mass is equal to or greater than 15 percent; • hygroscopic: Increase in mass is less than 15 percent and equal to or greater than 2 percent; • slightly hygroscopic: Increase in mass is less than 2 percent and equal to or greater than 0.2 percent. • no or almost no hygroscopic: Increase in mass is less than 0.2%.

[3] = cited from earlier work
[4] = converts to liquid crystalline form B spontaneously when stored for some time; cited from earlier work

- Time the form remains stable ([1]; 25° C./60% RH and 40° C./75% RH): at least 11 months
- Final Solid Form ([1]; 25° C./60% RH): Form E
- Final Solid Form ([1]; 40° C./75% RH): Form E
- Weight gain under 80% Relative Humidity ([2]; DVS, 80% RH): 1.82%
Structure (SMILES): O=C(O)c1ccc2nc(-c3cc(Cl)cc(Cl)c3)oc2c1 [Form E, 6-carboxy-2-(3,5-dichlorophenyl)-benzoxazole meglumine salt]
- Hygroscopicity class ([2]; 80% RH): slightly hygroscopic (Increase in mass is less than 2 percent and equal to or greater than 0.2 percent)

- Weight gain under 75% RH ([2]; DVS, 75% RH): 2.98%
- Weight gain under 80% Relative Humidity ([2]; DVS, 80% RH): 2.98%-4.65%
- Weight gain under 80% RH, inferred from FIG. 8 ([2]; DVS, 80% RH, inferred from the 75% RH value): > 2.98%
- Hygroscopicity (in words) ([2]; background statement, "Studies show"): high
Structure (SMILES): O=C(O)c1ccc2nc(-c3cc(Cl)cc(Cl)c3)oc2c1 [Form M, 6-carboxy-2-(3,5-dichlorophenyl)-benzoxazole meglumine salt]
- Hygroscopicity class ([2]; 80% RH): hygroscopic (Increase in mass is less than 15 percent and equal to or greater than 2 percent)

Structure (SMILES): O=C(O)c1ccc2nc(-c3cc(Cl)cc(Cl)c3)oc2c1 [Liquid crystalline form B, 6-carboxy-2-(3,5-dichlorophenyl)-benzoxazole meglumine salt]
- Weight gain when stored at 90% relative humidity ([3]; 90% relative humidity): up to 25%
- Hygroscopicity (in words) ([3]; prior-art description): highly deliquescent

Structure (SMILES): O=C(O)c1ccc2nc(-c3cc(Cl)cc(Cl)c3)oc2c1 [amorphous form A, 6-carboxy-2-(3,5-dichlorophenyl)-benzoxazole meglumine salt]
- Stability (in words) [4]: poor stability
